Results as given in ChEMBL document CHEMBL3885861, “Open TG-GATES”.

Species: Rattus norvegicus
Assay: Open TG-GATES - Regimen: Single
Type: toxicity, organism-based, Sprague-Dawley
Set-up: regimen Single, gender Male, age 6 weeks
Conditions: in vivo, po, 10 mg/kg, route gavage, dose level Low; for APTT / Bas / Eos / Fbg / Hb / Ht / Lym / MCH / MCHC / MCV / Mono / Neu / PT / Plat / RBC / Ret / WBC: tissue Blood; for KIDNEY_L / KIDNEY_R / KIDNEY_TOTAL: tissue Kidney; for LIVER: tissue Liver; for A/G / ALP / ALT / AST / BUN / CRE / Ca / Cl / DBIL / GLC / IP / K / LDH / Na / PL / RALB / TBIL / TC / TG / TP / gamma-GTP: tissue Plasma

CN(C)CCN(Cc1cccs1)c1ccccn1
TERMINAL_BW (3 h): 185 g | APTT (3 h): 20.7 s | Bas (3 h): 0% | Eos (3 h): 0.6% | Fbg (3 h): 285 mg/dL | Hb (3 h): 13.4 g/dL | Ht (3 h): 40.7% | Lym (3 h): 79.6% | MCH (3 h): 21.2 pg | MCHC (3 h): 32.9% | MCV (3 h): 64.6 fL | Mono (3 h): 2% | Neu (3 h): 17.2% | PT (3 h): 16.4 s | Plat (3 h): 111.1 x10_4/uL | RBC (3 h): 630.4 x10_4/ul | Ret (3 h): 7.5% | WBC (3 h): 82 x10_2/uL | KIDNEY_L (3 h): 0.8 g | KIDNEY_R (3 h): 0.8 g | KIDNEY_TOTAL (3 h): 1.6 g | LIVER (3 h): 8.1 g | A/G (3 h): 1.3 | ALP (3 h): 1664.4 IU/L | ALT (3 h): 41.2 IU/L | AST (3 h): 77.8 IU/L | BUN (3 h): 13.6 mg/dL | CRE (3 h): 0.2 mg/dL | Ca (3 h): 10.5 mg/dL | Cl (3 h): 107.6 meq/L | DBIL (3 h): 0.002 mg/dL | GLC (3 h): 171.6 mg/dL | IP (3 h): 8 mg/dL | K (3 h): 4.2 meq/L | LDH (3 h): 205.8 IU/L | Na (3 h): 144 meq/L | PL (3 h): 125.4 mg/dL | RALB (3 h): 3 g/dL | TBIL (3 h): 0.014 mg/dL | TC (3 h): 67.8 mg/dL | TG (3 h): 43.2 mg/dL | TP (3 h): 5.3 g/dL | gamma-GTP (3 h): 1.2 IU/L | TERMINAL_BW (6 h): 188.4 g | APTT (6 h): 20.6 s | Bas (6 h): 0% | Eos (6 h): 0.6% | Fbg (6 h): 294.6 mg/dL | Hb (6 h): 12.7 g/dL | Ht (6 h): 39% | Lym (6 h): 77.8% | MCH (6 h): 21.3 pg | MCHC (6 h): 32.6% | MCV (6 h): 65.3 fL | Mono (6 h): 2.2% | Neu (6 h): 18.6% | PT (6 h): 17.1 s | Plat (6 h): 119.7 x10_4/uL | RBC (6 h): 597.6 x10_4/ul | Ret (6 h): 7.6% | WBC (6 h): 70.2 x10_2/uL | KIDNEY_L (6 h): 0.9 g | KIDNEY_R (6 h): 0.9 g | KIDNEY_TOTAL (6 h): 1.9 g | LIVER (6 h): 8.2 g | A/G (6 h): 1.3 | ALP (6 h): 1485.8 IU/L | ALT (6 h): 37.6 IU/L | AST (6 h): 70.2 IU/L | BUN (6 h): 10.8 mg/dL | CRE (6 h): 0.1 mg/dL | Ca (6 h): 10.3 mg/dL | Cl (6 h): 106.6 meq/L | DBIL (6 h): 0.002 mg/dL | GLC (6 h): 171.6 mg/dL | IP (6 h): 9.6 mg/dL | K (6 h): 4.4 meq/L | LDH (6 h): 202.4 IU/L | Na (6 h): 141.6 meq/L | PL (6 h): 124 mg/dL | RALB (6 h): 2.9 g/dL | TBIL (6 h): 0.016 mg/dL | TC (6 h): 70.6 mg/dL | TG (6 h): 63.6 mg/dL | TP (6 h): 5.3 g/dL | gamma-GTP (6 h): 1 IU/L | TERMINAL_BW (9 h): 182.3 g | APTT (9 h): 20.7 s | Bas (9 h): 0% | Eos (9 h): 0.4% | Fbg (9 h): 314.8 mg/dL | Hb (9 h): 12.9 g/dL | Ht (9 h): 38.8% | Lym (9 h): 77.4% | MCH (9 h): 20.8 pg | MCHC (9 h): 33.3% | MCV (9 h): 62.5 fL | Mono (9 h): 2.2% | Neu (9 h): 19.4% | PT (9 h): 15.9 s | Plat (9 h): 114.9 x10_4/uL | RBC (9 h): 621.8 x10_4/ul | Ret (9 h): 7.4% | WBC (9 h): 62 x10_2/uL | KIDNEY_L (9 h): 0.8 g | KIDNEY_R (9 h): 0.9 g | KIDNEY_TOTAL (9 h): 1.7 g | LIVER (9 h): 7.8 g | A/G (9 h): 1.2 | ALP (9 h): 1429.4 IU/L | ALT (9 h): 30.2 IU/L | AST (9 h): 62.8 IU/L | BUN (9 h): 11.2 mg/dL | CRE (9 h): 0.1 mg/dL | Ca (9 h): 10.4 mg/dL | Cl (9 h): 106.4 meq/L | DBIL (9 h): 0 mg/dL | GLC (9 h): 171 mg/dL | IP (9 h): 9.6 mg/dL | K (9 h): 4.2 meq/L | LDH (9 h): 171 IU/L | Na (9 h): 142.4 meq/L | PL (9 h): 129 mg/dL | RALB (9 h): 3 g/dL | TBIL (9 h): 0.018 mg/dL | TC (9 h): 67.2 mg/dL | TG (9 h): 69.2 mg/dL | TP (9 h): 5.4 g/dL | gamma-GTP (9 h): 1 IU/L | TERMINAL_BW (24 h): 197.6 g | APTT (24 h): 19.8 s | Bas (24 h): 0% | Eos (24 h): 0.5% | Fbg (24 h): 282.8 mg/dL | Hb (24 h): 12.7 g/dL | Ht (24 h): 38.4% | Lym (24 h): 80.5% | MCH (24 h): 21.8 pg | MCHC (24 h): 33.1% | MCV (24 h): 65.8 fL | Mono (24 h): 1.8% | Neu (24 h): 16.8% | PT (24 h): 16.6 s | Plat (24 h): 114.6 x10_4/uL | RBC (24 h): 584 x10_4/ul | Ret (24 h): 7.2% | WBC (24 h): 94 x10_2/uL | KIDNEY_L (24 h): 0.9 g | KIDNEY_R (24 h): 0.9 g | KIDNEY_TOTAL (24 h): 1.7 g | LIVER (24 h): 9.3 g | A/G (24 h): 1.2 | ALP (24 h): 1858.2 IU/L | ALT (24 h): 42.2 IU/L | AST (24 h): 69.6 IU/L | BUN (24 h): 16.4 mg/dL | CRE (24 h): 0.2 mg/dL | Ca (24 h): 10.7 mg/dL | Cl (24 h): 107.4 meq/L | DBIL (24 h): 0.002 mg/dL | GLC (24 h): 180.6 mg/dL | IP (24 h): 7.3 mg/dL | K (24 h): 4.3 meq/L | LDH (24 h): 223.2 IU/L | Na (24 h): 142.8 meq/L | PL (24 h): 145.4 mg/dL | RALB (24 h): 2.9 g/dL | TBIL (24 h): 0.008 mg/dL | TC (24 h): 75.2 mg/dL | TG (24 h): 131.8 mg/dL | TP (24 h): 5.3 g/dL | gamma-GTP (24 h): 1 IU/L
